Measurements reported in ChEMBL document CHEMBL6120945, “Peptidomimetic Analogues Act as Effective Inhibitors against SARS-CoV-2 by Blocking the Function of Cathepsin L” (J Med Chem, 2024).
Where a SMILES comes first, the peptide text is derived from it. The star is where a group is joined. Cbz = O=C(OCc1ccccc1)*; Hexanoyl = CCCCCC(=O)*; PhAc = O=C(Cc1ccccc1)*

Tested on: not listed separately
Experiment: Inhibition of human recombinant Cathepsin L-like protease using Z-FR-AMC as substrate preincubated for 30 mins followed by substrate addition and measured after 1.5 hrs by fluorescence based analysis

| Structure (SMILES) | IC50 [µM] |
| --- | --- |
| CC(C)C[C@H](NC(=O)C1CCCCC1)C(=O)N[C@H](C=O)Cc1ccccc1 | 0.00606 |
| O=C[C@H](Cc1ccccc1)NC(=O)[C@H](Cc1ccc(F)cc1)NC(=O)/C=C/c1ccccc1 | 0.00668 |
| CC(C)C[C@H](NC(=O)OCc1ccccc1)C(=O)N[C@H](C=O)Cc1ccccc1 (Cbz-Leu-Phe-aldehyde) | 0.00988 |
| CC(C)C[C@H](NC(=O)/C=C/c1ccccc1)C(=O)N[C@H](C=O)CCc1ccccc1 | 0.026 |
| O=C[C@H](Cc1ccccc1)NC(=O)[C@H](Cc1ccc(Br)cc1)NC(=O)/C=C/c1ccccc1 | 0.0116 |
| CC(C)C[C@H](NC(=O)/C=C/c1ccccc1)C(=O)N[C@H](C=O)Cc1cccc(F)c1 | 0.162 |
| CC(C)C[C@H](NC(=O)/C=C/c1ccccc1)C(=O)N[C@H](C=O)Cc1ccccc1Br | 0.18 |
| CC(C)C[C@H](NC(=O)c1ccc2[nH]ccc2c1)C(=O)N[C@H](C=O)Cc1ccccc1 | 0.00205 |
| CC(C)C[C@H](NC(=O)Cc1c[nH]c2ccccc12)C(=O)N[C@H](C=O)Cc1ccccc1 | 0.00318 |
| C=Cc1ccc(C(=O)N[C@@H](CC(C)C)C(=O)N[C@H](C=O)Cc2ccccc2)cc1 | 0.00941 |
| CC(C)C[C@H](NC(=O)c1cc[nH]c1)C(=O)N[C@H](C=O)Cc1ccccc1 | 0.0373 |
| CC(C)C[C@H](NC(=O)/C=C/c1ccc(F)cc1)C(=O)N[C@H](C=O)Cc1ccccc1 | 0.0201 |
| O=C[C@H](Cc1ccccc1)NC(=O)[C@H](Cc1ccccc1F)NC(=O)/C=C/c1ccccc1 | 0.00682 |
| CC(C)(C)[C@H](NC(=O)/C=C/c1ccccc1)C(=O)N[C@H](C=O)Cc1ccccc1 | 0.182 |
| CC(C)C[C@H](NC(=O)c1ccc[nH]1)C(=O)N[C@H](C=O)Cc1ccccc1 | 0.0377 |
| CC(C)C[C@H](NC(=O)/C=C/c1ccc(C(F)(F)F)cc1)C(=O)N[C@H](C=O)Cc1ccccc1 | 0.0758 |
| CC(C)C[C@H](NC(=O)/C=C/c1ccccc1F)C(=O)N[C@H](C=O)Cc1ccccc1 | 0.0165 |
| CC(C)C[C@H](NC(=O)C1CCOCC1)C(=O)N[C@H](C=O)Cc1ccccc1 | 0.0202 |

| Structure (SMILES) | IC50 [µM] |
| --- | --- |
| CC(C)C[C@H](NC(=O)c1ccc([N+](=O)[O-])cc1)C(=O)N[C@H](C=O)Cc1ccccc1 | 0.00819 |
| CC(C)C[C@H](NC(=O)c1ccc(F)cc1)C(=O)N[C@H](C=O)Cc1ccccc1 | 0.00985 |
| CC(C)C[C@H](NC(=O)/C=C/c1ccc(Cl)cc1)C(=O)N[C@H](C=O)Cc1ccccc1 | 0.0235 |
| CCCC[C@H](NC(=O)/C=C/c1ccccc1)C(=O)N[C@H](C=O)Cc1ccccc1 | 0.157 |
| O=C[C@H](Cc1ccccc1)NC(=O)[C@H](Cc1cccc(F)c1)NC(=O)/C=C/c1ccccc1 | 0.00656 |
| CC(C)C[C@H](NC(=O)/C=C/c1ccccc1)C(=O)N[C@H](C=O)CC1CCCCC1 | 0.0478 |
| CCCCCC(=O)N[C@@H](CC(C)C)C(=O)N[C@H](C=O)Cc1ccccc1 (Hexanoyl-Leu-Phe-aldehyde) | 0.0346 |
| O=C[C@H](Cc1ccccc1)NC(=O)[C@H](Cc1ccccc1)NC(=O)/C=C/c1ccccc1 | 0.00665 |
| CC(C)C[C@H](NC(=O)/C=C/c1ccccc1)C(=O)N[C@@H](C=O)Cc1ccccc1 | > 1 |
| CC(C)C[C@H](NC(=O)/C=C/c1cccc(F)c1)C(=O)N[C@H](C=O)Cc1ccccc1 | 0.0462 |
| COc1ccc(C[C@@H](C=O)NC(=O)[C@H](CC(C)C)NC(=O)/C=C/c2ccccc2)cc1 | 0.131 |
| COC(=O)/C=C/[C@H](Cc1ccccc1)NC(=O)[C@H](CC(C)C)NC(=O)/C=C/c1ccccc1 | > 1 |
| CC(C)C[C@H](NC(=O)c1ccsc1)C(=O)N[C@H](C=O)Cc1ccccc1 | 0.00815 |
| CC(C)C[C@H](NC(=O)Cc1ccccc1)C(=O)N[C@H](C=O)Cc1ccccc1 (PhAc-Leu-Phe-aldehyde) | 0.00782 |
| CC(C)C[C@H](NC(=O)/C=C/c1ccccc1)C(=O)N[C@H](C=O)Cc1ccc(F)cc1 | 0.0741 |
| CC[C@H](C)[C@H](NC(=O)/C=C/c1ccccc1)C(=O)N[C@H](C=O)Cc1ccccc1 | 0.17 |
| CCC[C@H](NC(=O)/C=C/c1ccccc1)C(=O)N[C@H](C=O)Cc1ccccc1 | 0.125 |
| CC(C)C[C@H](NC(=O)c1cccc(F)c1)C(=O)N[C@H](C=O)Cc1ccccc1 | 0.0075 |

Molecular target: Replicase polyprotein 1ab (Severe acute respiratory syndrome coronavirus 2, UniProt P0DTD1)
Experiment: Inhibition of recombinant SARS-CoV-2 3CLpro using MCA-AVLQSGFR-Lys(Dnp)-Lys-NH2 as substrate incubated for 1.5 hrs by fluorescence based analysis

| Structure (SMILES) | IC50 [µM] |
| --- | --- |
| CC(C)C[C@H](NC(=O)C1CCCCC1)C(=O)N[C@H](C=O)Cc1ccccc1 | > 10 |
| O=C[C@H](Cc1ccccc1)NC(=O)[C@H](Cc1ccc(F)cc1)NC(=O)/C=C/c1ccccc1 | > 10 |
| CC(C)C[C@H](NC(=O)OCc1ccccc1)C(=O)N[C@H](C=O)Cc1ccccc1 (Cbz-Leu-Phe-aldehyde) | > 10 |
| CC(C)C[C@H](NC(=O)/C=C/c1ccccc1)C(=O)N[C@H](C=O)CCc1ccccc1 | > 10 |
| O=C[C@H](Cc1ccccc1)NC(=O)[C@H](Cc1ccc(Br)cc1)NC(=O)/C=C/c1ccccc1 | > 10 |
| CC(C)C[C@H](NC(=O)/C=C/c1ccccc1)C(=O)N[C@H](C=O)Cc1cccc(F)c1 | > 10 |
| CC(C)C[C@H](NC(=O)/C=C/c1ccccc1)C(=O)N[C@H](C=O)Cc1ccccc1Br | > 10 |
| CC(C)C[C@H](NC(=O)c1ccc2[nH]ccc2c1)C(=O)N[C@H](C=O)Cc1ccccc1 | > 10 |
| CC(C)C[C@H](NC(=O)Cc1c[nH]c2ccccc12)C(=O)N[C@H](C=O)Cc1ccccc1 | > 10 |
| C=Cc1ccc(C(=O)N[C@@H](CC(C)C)C(=O)N[C@H](C=O)Cc2ccccc2)cc1 | > 10 |
| CC(C)C[C@H](NC(=O)c1cc[nH]c1)C(=O)N[C@H](C=O)Cc1ccccc1 | > 10 |
| CC(C)C[C@H](NC(=O)/C=C/c1ccc(F)cc1)C(=O)N[C@H](C=O)Cc1ccccc1 | > 10 |
| O=C[C@H](Cc1ccccc1)NC(=O)[C@H](Cc1ccccc1F)NC(=O)/C=C/c1ccccc1 | > 10 |
| CC(C)(C)[C@H](NC(=O)/C=C/c1ccccc1)C(=O)N[C@H](C=O)Cc1ccccc1 | > 10 |
| CC(C)C[C@H](NC(=O)c1ccc[nH]1)C(=O)N[C@H](C=O)Cc1ccccc1 | > 10 |
| CC(C)C[C@H](NC(=O)/C=C/c1ccc(C(F)(F)F)cc1)C(=O)N[C@H](C=O)Cc1ccccc1 | > 10 |
| CC(C)C[C@H](NC(=O)/C=C/c1ccccc1F)C(=O)N[C@H](C=O)Cc1ccccc1 | > 10 |
| CC(C)C[C@H](NC(=O)C1CCOCC1)C(=O)N[C@H](C=O)Cc1ccccc1 | > 10 |

| Structure (SMILES) | IC50 [µM] |
| --- | --- |
| CC(C)C[C@H](NC(=O)c1ccc([N+](=O)[O-])cc1)C(=O)N[C@H](C=O)Cc1ccccc1 | > 10 |
| CC(C)C[C@H](NC(=O)c1ccc(F)cc1)C(=O)N[C@H](C=O)Cc1ccccc1 | > 10 |
| CC(C)C[C@H](NC(=O)/C=C/c1ccc(Cl)cc1)C(=O)N[C@H](C=O)Cc1ccccc1 | > 10 |
| CCCC[C@H](NC(=O)/C=C/c1ccccc1)C(=O)N[C@H](C=O)Cc1ccccc1 | > 10 |
| O=C[C@H](Cc1ccccc1)NC(=O)[C@H](Cc1cccc(F)c1)NC(=O)/C=C/c1ccccc1 | > 10 |
| CC(C)C[C@H](NC(=O)/C=C/c1ccccc1)C(=O)N[C@H](C=O)CC1CCCCC1 | > 10 |
| CCCCCC(=O)N[C@@H](CC(C)C)C(=O)N[C@H](C=O)Cc1ccccc1 (Hexanoyl-Leu-Phe-aldehyde) | > 10 |
| O=C[C@H](Cc1ccccc1)NC(=O)[C@H](Cc1ccccc1)NC(=O)/C=C/c1ccccc1 | > 10 |
| CC(C)C[C@H](NC(=O)/C=C/c1ccccc1)C(=O)N[C@@H](C=O)Cc1ccccc1 | > 10 |
| CC(C)C[C@H](NC(=O)/C=C/c1cccc(F)c1)C(=O)N[C@H](C=O)Cc1ccccc1 | > 10 |
| COc1ccc(C[C@@H](C=O)NC(=O)[C@H](CC(C)C)NC(=O)/C=C/c2ccccc2)cc1 | > 10 |
| COC(=O)/C=C/[C@H](Cc1ccccc1)NC(=O)[C@H](CC(C)C)NC(=O)/C=C/c1ccccc1 | > 10 |
| CC(C)C[C@H](NC(=O)c1ccsc1)C(=O)N[C@H](C=O)Cc1ccccc1 | > 10 |
| CC(C)C[C@H](NC(=O)Cc1ccccc1)C(=O)N[C@H](C=O)Cc1ccccc1 (PhAc-Leu-Phe-aldehyde) | > 10 |
| CC(C)C[C@H](NC(=O)/C=C/c1ccccc1)C(=O)N[C@H](C=O)Cc1ccc(F)cc1 | > 10 |
| CC[C@H](C)[C@H](NC(=O)/C=C/c1ccccc1)C(=O)N[C@H](C=O)Cc1ccccc1 | > 10 |
| CCC[C@H](NC(=O)/C=C/c1ccccc1)C(=O)N[C@H](C=O)Cc1ccccc1 | > 10 |
| CC(C)C[C@H](NC(=O)c1cccc(F)c1)C(=O)N[C@H](C=O)Cc1ccccc1 | > 10 |
